{"source": "patent US8871796B2", "about": "“Diaryl ether derivatives as notch sparing gamma secretase inhibitors” (Merck Sharp & Dohme Corp., priority 2009, dated 2014)", "assay": "APP processing: AlphaLisa assay of secreted Aβ40 and Aβ42 from SP4CT cells", "type": "cell-based", "conditions": "Homo sapiens, SH-SY5Y cells expressing amyloid β protein (SP4CT cells)", "protocol": "APP Processing (Assay Quantitates Secreted Aβ Analytes from Cell Lines):\nThe effect of compounds on the abundance of Aβ40 and Aβ42 peptides generated from SH-SY5Y cells expressing amyloid β protein (SP4CT cells) are determined by an AlphaLisa™ assay. Analogous to an ELISA assay, generation of […] AlphaLisa™ assay requires “donor” and “acceptor” beads to be brought in close proximity by specific antibody recognition of either Aβ40 or Aβ42 peptides. The assay is accomplished by removing media from compound-treated SP4CT cells to two different microplates, followed by the addition of donor beads conjugated with streptavidin binding a biotinylated anti-amyloid β monocolonal antibody (clone 4G8). Acceptor beads directly conjugated with anti-Aβ40 monoclonal antibody (G210) are added to one microplate and anti-Aβ42 monoclonal antibody (12F4) acceptor beads were added to the other. Abundance of Aβ40 and Aβ42 is directly proportional to the luminescent signal generated following excitation of donor beads by laser light.", "key": {"[1]": {"conditions": "read-out: IC50, inhibition of production of Aβ40 peptide"}, "[2]": {"conditions": "read-out: IC50, inhibition of production of Aβ42 peptide"}}, "note": "Read-outs that look alike come from different tables or passages of the source."}
{"compound": "CCn1nc(-c2cccc(C(C)(C)NS(=O)(=O)CC(F)(F)F)c2)cc1Oc1ccc(C(F)(F)F)cc1", "note": "[Example 1, N-[1-(3-{1-ethyl-5-[4-(trifluoromethyl)phenoxy]-1H-pyrazol-3-yl}phenyl)-1-methylethyl]-2,2,2-trifluoroethanesulfonamide]", "values": [{"measurement": "IC50", "setting": "[1]", "result": "< 200", "unit": "nM"}, {"measurement": "IC50", "setting": "[2]", "result": "< 200", "unit": "nM"}]}
{"compound": "CCn1nc(-c2cccc(C(C)(C)NS(=O)(=O)CC3CCC3)c2)cc1Oc1ccc(C(F)(F)F)cc1", "note": "[Example 2, 1-cyclobutyl-N-[1-(3-{1-ethyl-5-[4-(trifluoromethyl)phenoxy]-1H-pyrazol-3-yl}phenyl)-1-methylethyl]methanesulfonamide]", "values": [{"measurement": "IC50", "setting": "[1]", "result": "< 200", "unit": "nM"}, {"measurement": "IC50", "setting": "[2]", "result": "< 200", "unit": "nM"}]}
{"compound": "CCn1nc(-c2cccc(C(C)(C)NS(=O)(=O)NC3CCC3)c2)cc1Oc1ccc(C(F)(F)F)cc1", "note": "[Example 3, N-cyclobutyl-N′-[1-(3-{1-ethyl-5-[4-(trifluoromethyl)phenoxy]-1H-pyrazol-3-y}phenyl)-1-methylethyl]sulfamide]", "values": [{"measurement": "IC50", "setting": "[1]", "result": "< 200", "unit": "nM"}, {"measurement": "IC50", "setting": "[2]", "result": "< 200", "unit": "nM"}]}
{"compound": "CCn1nc(-c2cccc(C(C)(C)NS(=O)(=O)NCC(F)(F)F)c2)cc1Oc1ccc(C(F)(F)F)cc1", "note": "[Example 4, N-[1-(3-{1-ethyl-5-[4-(trifluoromethyl)phenoxy]-1H-pyrazol-3-yl}phenyl)-1-methylethyl]-N′-(2,2,2-trifluoroethyl)sulfamide]", "values": [{"measurement": "IC50", "setting": "[1]", "result": "< 200", "unit": "nM"}, {"measurement": "IC50", "setting": "[2]", "result": "< 200", "unit": "nM"}]}
{"compound": "CCn1nc(-c2cccc(C(C)(C)NS(=O)(=O)CC(F)(F)F)c2)cc1Oc1ccc(C(F)(F)F)cc1F", "note": "[Example 5, N-[1-(3-{1-ethyl-5-[2-fluoro-4-(trifluoromethyl)phenoxy]-1H-pyrazol-3-yl}phenyl)-1-methylethyl]-2,2,2-trifluoroethanesulfonamide]", "values": [{"measurement": "IC50", "setting": "[1]", "result": "< 200", "unit": "nM"}, {"measurement": "IC50", "setting": "[2]", "result": "< 200", "unit": "nM"}]}
{"compound": "CCn1nc(-c2cccc(C(C)(C)NS(=O)(=O)CC(F)(F)F)c2)cc1Oc1ccccc1F", "note": "[Example 7, N-(1-{3-[1-ethyl-5-(2-fluorophenoxy)-1H-pyrazol-3-yl]phenyl}-1-methylethyl)-2,2,2-trifluoroethanesulfonamide]", "values": [{"measurement": "IC50", "setting": "[1]", "result": "< 200", "unit": "nM"}, {"measurement": "IC50", "setting": "[2]", "result": "< 200", "unit": "nM"}]}
{"compound": "CCCNS(=O)(=O)NC(C)(C)c1cccc(-c2cc(Oc3ccc(C(F)(F)F)cc3)n(CC)n2)c1", "note": "[Example 8, N-[1-(3-{1-ethyl-5-[4-(trifluoromethyl)phenoxy]-1H-pyrazol-3-yl}phenyl)-1-methylethyl]-N′-propylsulfamide]", "values": [{"measurement": "IC50", "setting": "[1]", "result": "< 200", "unit": "nM"}, {"measurement": "IC50", "setting": "[2]", "result": "< 200", "unit": "nM"}]}
{"compound": "CCn1nc(-c2cccc(C(C)(C)NS(=O)(=O)NCC(C)C)c2)cc1Oc1ccc(C(F)(F)F)cc1", "note": "[Example 9, N-[1-(3-{1-ethyl-5-[4-(trifluoromethyl)phenoxy]-1H-pyrazol-3-yl}phenyl)-1-methylethyl]-N′-isobutylsulfamide]", "values": [{"measurement": "IC50", "setting": "[1]", "result": "< 200", "unit": "nM"}, {"measurement": "IC50", "setting": "[2]", "result": "< 200", "unit": "nM"}]}
{"compound": "CCn1nc(-c2cccc(C(C)(C)NS(=O)(=O)NC)c2)cc1Oc1ccc(C(F)(F)F)cc1", "note": "[Example 10, N-[1-(3-{1-ethyl-5-[4-(trifluoromethyl)phenoxy]-1H-pyrazol-3-yl}phenyl)-1-methylethyl]-N′-methylsulfamide]", "values": [{"measurement": "IC50", "setting": "[1]", "result": "< 200", "unit": "nM"}, {"measurement": "IC50", "setting": "[2]", "result": "< 200", "unit": "nM"}]}
{"compound": "CCn1nc(-c2cccc(C(C)(C)NS(=O)(=O)N3CCCC3)c2)cc1Oc1ccc(C(F)(F)F)cc1", "note": "[Example 11, N-[1-(3-{1-ethyl-5-[4-(trifluoromethyl)phenoxy]-1H-pyrazol-3-yl}phenyl)-1-methylethyl]pyrrolidine-1-sulfonamide]", "values": [{"measurement": "IC50", "setting": "[1]", "result": "< 200", "unit": "nM"}, {"measurement": "IC50", "setting": "[2]", "result": "< 200", "unit": "nM"}]}
{"compound": "CCn1nc(-c2cccc(C(C)(C)NS(=O)(=O)C3CC3)c2)cc1Oc1ccc(C(F)(F)F)cc1", "note": "[Example 12, N-[1-(3-{1-ethyl-5-[4-(trifluoromethyl)phenoxy]-1H-pyrazol-3-yl}phenyl)-1-methylethyl] cyclopropanesulfonamide]", "values": [{"measurement": "IC50", "setting": "[1]", "result": "< 200", "unit": "nM"}, {"measurement": "IC50", "setting": "[2]", "result": "< 200", "unit": "nM"}]}
{"compound": "CCn1nc(-c2cccc(C(C)(C)NS(=O)(=O)NC3CCCC3)c2)cc1Oc1ccc(C(F)(F)F)cc1", "note": "[Example 13, N-cyclopentyl-N′-[1-(3-{1-ethyl-5-[4-(trifluoromethyl)phenoxy]-1H-pyrazol-3-yl}phenyl)-1-methylethyl]sulfamide]", "values": [{"measurement": "IC50", "setting": "[1]", "result": "< 200", "unit": "nM"}, {"measurement": "IC50", "setting": "[2]", "result": "< 200", "unit": "nM"}]}
{"compound": "CCn1nc(-c2cccc(C(C)(C)NS(=O)(=O)N(C)C)c2)cc1Oc1ccc(C(F)(F)F)cc1", "note": "[Example 14, N′-[1-(3-{1-ethyl-5-[4-(trifluoromethyl)phenoxy]-1H-pyrazol-3-yl}phenyl)-1-methylethyl]-N,N-dimethylsulfamide]", "values": [{"measurement": "IC50", "setting": "[1]", "result": "< 200", "unit": "nM"}, {"measurement": "IC50", "setting": "[2]", "result": "< 200", "unit": "nM"}]}
{"compound": "CCn1nc(-c2cc(F)cc(C(C)(C)NS(=O)(=O)CC(F)(F)F)c2)cc1Oc1ccc(C(F)(F)F)cc1", "note": "[Example 15, N-[1-(3-{1-ethyl-5-[4-(trifluoromethyl)phenoxy]-1H-pyrazol-3-yl}-5-fluorophenyl)-1-methylethyl]-2,2,2-trifluoraethanesulfonamide]", "values": [{"measurement": "IC50", "setting": "[1]", "result": "< 200", "unit": "nM"}, {"measurement": "IC50", "setting": "[2]", "result": "< 200", "unit": "nM"}]}
{"compound": "CCn1nc(Oc2ccc(C(F)(F)F)cc2)cc1-c1cccc(C(C)(C)NS(=O)(=O)NC2CCC2)c1", "note": "[Example 16, N-cyclobutyl-N′-[1-(3-{1-ethyl-3-[4-(trifluoromethyl)phenoxy]-1H-pyrazol-5-yl}phenyl)-1-methylethyl]sulfamide]", "values": [{"measurement": "IC50", "setting": "[1]", "result": "< 200", "unit": "nM"}, {"measurement": "IC50", "setting": "[2]", "result": "< 200", "unit": "nM"}]}
{"compound": "CCn1nc(Oc2ccc(C(F)(F)F)cc2)cc1-c1cccc(C(C)(C)NS(=O)(=O)NCC(C)C)c1", "note": "[Example 17, N-[1-(3-{1-ethyl-3-[4-(trifluoromethyl)phenoxy]-1H-pyrazol-5-yl}phenyl)-1-methylethyl]-N′-isobutylsulfamide]", "values": [{"measurement": "IC50", "setting": "[1]", "result": "< 200", "unit": "nM"}, {"measurement": "IC50", "setting": "[2]", "result": "< 200", "unit": "nM"}]}
{"compound": "CCn1nc(Oc2ccc(C(F)(F)F)cc2)cc1-c1cccc(C(C)(C)NS(=O)(=O)NC2CCCC2)c1", "note": "[Example 18, N-cyclopentyl-N′-[1-(3-{1-ethyl-3-[4-(trifluoromethyl)phenoxy]-H-pyrazol-5-yl}phenyl)-1-methylethyl]sulfamide]", "values": [{"measurement": "IC50", "setting": "[1]", "result": "< 200", "unit": "nM"}, {"measurement": "IC50", "setting": "[2]", "result": "< 200", "unit": "nM"}]}
{"compound": "CCn1nc(Oc2ccc(C(F)(F)F)cc2)cc1-c1cccc(C(C)(C)NS(=O)(=O)CC(F)(F)F)c1", "note": "[Example 20, N-[1-(3-{1-ethyl-3-[4-(trifluoromethyl)phenoxy]-1H-pyrazol-5-yl}phenyl)-1-methylethyl]-2,2,2-trifluoroethanesulfonamide]", "values": [{"measurement": "IC50", "setting": "[1]", "result": "< 200", "unit": "nM"}, {"measurement": "IC50", "setting": "[2]", "result": "< 200", "unit": "nM"}]}
{"compound": "CCn1nc(Oc2ccc(C(F)(F)F)cc2F)cc1-c1cccc(C(C)(C)NS(=O)(=O)CC(F)(F)F)c1", "note": "[Example 21, N-[1-(3-{1-ethyl-3-[2-fluoro-4-(trifluoromethyl)phenoxy]-1H-pyrazol-5-yl}phenyl)-1-methylethyl]-2,2,2-trifluoroethanesulfonamide]", "values": [{"measurement": "IC50", "setting": "[1]", "result": "< 200", "unit": "nM"}, {"measurement": "IC50", "setting": "[2]", "result": "< 200", "unit": "nM"}]}
{"compound": "CCn1nc(Oc2ccc(Cl)nc2)cc1-c1cccc(C(C)(C)NS(=O)(=O)CC(F)(F)F)c1", "note": "[Example 22, N-[1-(3-{3-[(6-chloropyridin-3-yl)oxy]-1-ethyl-1H-pyrazol-5-yl]phenyl)-1-methylethyl]-2,2,2-trifluoroethanesulfonamide]", "values": [{"measurement": "IC50", "setting": "[1]", "result": "< 200", "unit": "nM"}, {"measurement": "IC50", "setting": "[2]", "result": "< 200", "unit": "nM"}]}
{"compound": "CCCNS(=O)(=O)NC(C)(C)c1cccc(-c2cc(Oc3ccc(C(F)(F)F)cc3)nn2CC)c1", "note": "[Example 23, N-[1-(3-{1-ethyl-3-[4-(trifluoromethyl)phenoxy]-1H-pyrazol-5-yl}phenyl)-1-methylethyl]-N′-propylsulfamide]", "values": [{"measurement": "IC50", "setting": "[1]", "result": "< 200", "unit": "nM"}, {"measurement": "IC50", "setting": "[2]", "result": "< 200", "unit": "nM"}]}
